US20050176685A1 (priority 2002, published 2005)

Assays:
[1] = target: T1, vitamin D receptor (Homo sapiens, UniProt P11473); conditions: compared with 1α,25-dihydroxy-cholecalciferol; cited from earlier work
T1 sequence (P11473 1-427): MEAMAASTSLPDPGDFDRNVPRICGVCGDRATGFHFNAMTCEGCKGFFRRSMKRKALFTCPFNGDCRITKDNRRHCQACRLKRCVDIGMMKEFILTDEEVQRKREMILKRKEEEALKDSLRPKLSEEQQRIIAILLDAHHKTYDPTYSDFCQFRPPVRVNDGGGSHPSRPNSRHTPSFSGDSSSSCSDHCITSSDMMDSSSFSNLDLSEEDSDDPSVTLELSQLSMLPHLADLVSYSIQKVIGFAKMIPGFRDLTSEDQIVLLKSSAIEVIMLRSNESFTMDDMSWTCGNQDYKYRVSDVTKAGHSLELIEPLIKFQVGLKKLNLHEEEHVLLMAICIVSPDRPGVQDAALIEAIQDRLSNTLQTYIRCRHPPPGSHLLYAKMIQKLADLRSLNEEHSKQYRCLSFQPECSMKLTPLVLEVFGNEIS

[2] = 50 micrograms equivalent to about 70 micrograms (2800 IU) of vitamin D3; cited from earlier work

| SMILES | Intrinsic activity relative to 1α,25-dihydroxy-cholecalciferol [1] | Potency relative to vitamin D3 [2] | Progression of vertebral deformity (compared to placebo patients) | Decrease in the risk of vertebral fractures (compared to placebo, statistically significant, patients with fractures) | Reduction in vertebral fracture rate per 100 patients (total number of vertebral fractures, compared to placebo) |
| --- | --- | --- | --- | --- | --- |
| C=C1CC[C@H](O)C/C1=C/C=C1\CCC[C@]2(C)[C@@H]([C@H](C)CCCC(C)(C)O)CC[C@@H]12 [25-hydroxy-cholecalciferol] | about 100 fold lower | about 1.4 times | – | – | – |
| NCCCC(O)(P(=O)(O)O)P(=O)(O)O [alendronate, 4-Amino-1-hydroxybutylidene-1,1-bisphosphonic acid monosodium trihydrate] | – | – | statistically significant decrease | at least 40% | at least 50% |
